Experimental data taken from patent publication US9737532B2, “Method of treating ischemia/reperfusion injury” (TOKYO UNIVERSITY OF SCIENCE FOUNDATION, priority 2011, dated 2017).
Where two headings read alike, the source gives them in different places. Where a SMILES comes first, the peptide text is derived from it. The star is where a group is joined. Cbz = O=C(OCc1ccccc1)*

How the values were obtained:
[1] = system: p53; assay: p53 protein stabilization by Western blotting in mouse fibroblast cells; format: cell-based; conditions: for p53 protein stabilization: 8 hours, FIG. 4A; for p53 stabilization: 24 hours, FIG. 1A; for p53 accumulation: summary statement of the discussion
[2] = system: Parp1 protein; assay: Parp1 protein levels by Western blotting in mouse cells; format: cell-based; conditions: for Parp1 reduction, p53 dependency: MEFs from p53+/+ or −/− mice; for reduction in Parp1 protein: summary statement of the discussion; for basal Parp1 protein levels: MG132 alone, 5 μM
From the text: Mouse fibroblast cell line 3T3-L1, human lung cancer cell line A549, and human hepatoma cell line HepG2 were purchased from the RIKEN Bioresource Center (Japan). Mouse fibroblast cell line 3T3-F442A and human osteosarcoma cell line U2OS were purchased from the European Collection of Animal Cell Cultures (U.K.). p53 deficient mouse-derived fibroblast cell line HW (J. Med. Chem. (2010) 53, 4561-4584) was kindly provided by Dr. Masayuki Saito (Tenshi University, Japan). The cells were maintained in Dulbecco's modified Eagle's medium (low glucose) (WAKO, Japan) with 10% (3T3-L1, 3T3-F442A, HW, U2OS, and HepG2) or 5% (A549) fetal calf serum and 1% penicillin/streptomycin (SIGMA). Cpt and MG132 were purchased from WAKO (Japan).
We designed a mouse p53 shRNA expression vector based on target sequences for effective p53 knockdown, as previously reported (J. Biol. Chem. (2003) 278, 11731-11734). Two oligonucleotides, 5′-gatcccc[…]ttcaagaga[…]ttttt ggaaa-3′ (SEQ ID NO:1) and 5′-agcttttccaaaaa[…]tctcttgaa[…] ACggg-3′ (SEQ ID NO:2) (upper case letters, target sequences against p53; lower case letters, BgIII, HindIII or loop structure sequences) were chemically synthesized (Operon Biotechnology, USA). The annealed oligos were directly ligated into a BgIII and HindIII-digested pSUPER-puro shRNA expression vector gifted from Dr. Shigeo Ohno (Yokohama City University, Japan) (Cell Sci. (2006) 119, 2107-2118). The produced vector, termed pSUPER-puro-shmp53, was transfected with Lipofectamine LTX (Invitrogen, USA) into 3T3-L1 cells, according to the manufacturer's protocol. For stable p53 knockdown cell lines, the transfected cells were selected with puromycin and resistant clones were isolated by trypsinization using cloning cylinders.
p53 heterozygous mice (Accession Number, CDB 0001K) (Oncogene (1993) 8, 3313-3322) were purchased from RIKEN BRC (Saitama, Japan). p53 heterozygous males and females were crossed, and MEFs were prepared from the pregnant females. Each 13- to 15-day-old embryo was dissected from the uterus and washed with PBS. After removal of the head, tail, limbs, and blood-enriched organs, the trimmed embryo was washed with PBS and minced. After trypsinization at 37° C. for 10 min followed by inactivation of trypsin by addition of FCS, MEFs were separated by filtration through a cell-strainer. p53 status was confirmed by PCR using previously described primers (forward primer for p53 genomic sequence, 5′-[…]-3′ (SEQ ID NO:3); reverse primer for p53 genomic sequence, 5′-[…]-3′ (SEQ ID NO:4), forward primer for neo sequence, 5′-[…]-3′ (SEQ ID NO:5)) (Oncogene (1993) 8, 3313-3322), and the established MEFs were maintained in DMEM high glucose with 10% FCS, 2-mercaptoethanol (2-ME), and antibiotics.
Cells were lyzed by the addition of lysis buffer (50 mM Tris-HCl pH6.8, 2% SDS, 5% glycerol), boiled for 5 min, and sonicated. Protein concentrations of the soluble fraction were determined by BCA protein assay (PIERCE, USA) according to the manufacturer's protocol, and standardized by the addition of lysis buffer. Following this, the proteins were added to 2-ME and bromophenol blue so as to obtain final concentrations of 5% and 0.025%, respectively, and boiled for 5 min. Equal amounts of proteins (5 to 20 μg) were subjected to SDS-PAGE and transferred to nitrocellulose membranes. The membranes were blocked with 2.5% skim milk and 0.25% BSA in TBS (50 mM Tris, pH 7.4, 150 mM NaCl) containing 0.1% Tween 20 (TTBS) for 1 h at room temperature, and then probed with appropriate primary antibodies overnight at 4° C. or for 2 h at room temperature. As primary antibodies, anti-Parp1 (clone C-2-10, WAKO, Japan), anti-p53 (clone Ab-1, Calbiochem, USA), anti-βactin (clone AC-15, SIGMA, USA), or anti-caspase-3 (clone 1F3, MBL, Japan) antibodies were used. […]

[3] = system: caspase-3; assay: caspase-3 activation by Western blotting in mouse fibroblast cells; format: cell-based; conditions: 24 hours
[4] = system: Parp1 protein; assay: Parp1 protein levels by Western blotting in human cell lines; format: cell-based
[5] = system: Parp1; conditions: cited from earlier work
[6] = system: 3T3-L1 cells
[7] = system: Parp1 mRNA; assay: Parp1 mRNA by RT-PCR; format: cell-based, mouse; conditions: 24 hours, FIG. 3A
Procedure: Cells were lyzed by RNAiso PLUS (TaKaRa, Japan), and then total RNA was purified using a FastPure RNA kit (TaKaRa, Japan) according to manufacturer's protocol. […] RNA was subjected to reverse transcription with PrimeScript Reverse Transcriptase (TaKaRa, Japan) and random hexamer (TaKaRa, Japan). The PCR reaction was performed using Platinum Taq DNA Polymerase High Fidelity (Invitrogen, USA) and Parp1 (forward, 5′-[…]-3′ (SEQ ID NO:6); reverse, 5′-[…]-3′ (SEQ ID NO:7)) or β-actin primers (forward, 5′-[…]-3′ (SEQ ID NO:8); reverse, 5′-[…]-3′ (SEQ ID NO:9)) as follows: initiation step, at 94° C. for 1 min; amplification step, 30 (Parp1) or 25 (β-actin) cycles of at 94° C. for 1 min, at 52° C. (Parp1) or 61° C. (β-actin) for 15 sec, at 68° C. for 15 sec; termination step, 68° C. 15 sec. PCR products were subjected to 1.8% agarose gel electrophoresis, stained with ethidium bromide, and visualized with LAS3000. The data was analyzed using MultiGauge software (FUJI FILM, Japan).

[8] = 3T3-F442A cells, 8 hours, FIGS. 4A and 4B
[9] = 3T3-L1 cells, 8 hours, FIGS. 4A and 4B
[10] = 3T3-F442A cells, 24 hours, FIGS. 1A and 1B
[11] = 3T3-L1 cells, 24 hours, FIGS. 1A and 1B

**Q.** Which p53 protein stabilization ([1]; 3T3-F442A cells) does the source give for `COc1ccc(C2=N[C@H](c3ccc(C(F)(F)F)cc3)[C@H](c3ccc(C(F)(F)F)cc3)N2C(=O)N2CCNC(=O)C2)c(OC(C)C)c1` [Caylin2] here?
**A.** induced p53 protein stabilization

**Q.** And the p53 protein stabilization ([1]; 3T3-L1 cells)?
**A.** induced p53 protein stabilization

**Q.** What about the “Parp1 cleavage / Parp1 protein” value ([2]; 20 μM Caylin2, 8 hours) of the same compound?
**A.** induced Parp1 protein decrease without any trace of its apoptotic cleavage

**Q.** And the “Parp1 cleavage / Parp1 protein” value ([2]; 100 μM Caylin2, 8 hours)?
**A.** induced Parp1 cleavage

**Q.** What about the Parp1 protein levels [2, 8] of the same compound?
**A.** markedly decreased the Parp1 protein levels

**Q.** And the Parp1 protein levels [2, 9]?
**A.** markedly decreased the Parp1 protein levels

**Q.** And the “Parp1 reduction, p53 dependency” value ([2]; 8 hours, FIGS. 5A and 5B)?
**A.** reduces the Parp1 protein levels in a p53-dependent manner

**Q.** For `CC[C@@]1(O)C(=O)OCc2c1cc1n(c2=O)Cc2cc3ccccc3nc2-1` [Cpt, camptothecin], which p53 stabilization ([1]; 3T3-F442A cells) is on record?
**A.** induced p53 stabilization

**Q.** What about the p53 stabilization ([1]; 3T3-L1 cells) of the same compound?
**A.** induced p53 stabilization

**Q.** And the p53 accumulation [1]?
**A.** induced p53 accumulation

**Q.** And the caspase-3 activation ([3]; 3T3-F442A cells)?
**A.** no caspase-3 activation

**Q.** And the caspase-3 activation ([3]; 3T3-L1 cells)?
**A.** no caspase-3 activation

**Q.** What about the Parp1 protein levels [2, 10] of the same compound?
**A.** did not alter the Parp1 protein levels

**Q.** And the Parp1 protein levels [2, 11]?
**A.** did not alter the Parp1 protein levels

**Q.** What about the “reduction in Parp1 protein” value [2] of the same compound?
**A.** did not evoke a significant reduction in Parp1 protein

**Q.** Which p53 accumulation [1] does the source give for `CC(C)C[C@@H](C=O)NC(=O)[C@H](CC(C)C)NC(=O)[C@H](CC(C)C)NC(=O)OCc1ccccc1` [MG132] (Cbz-Leu-Leu-Leu-aldehyde) here?
**A.** induced p53 accumulation

**Q.** What about the “effect on Caylin2-induced reduction in Parp1” value ([2]; 5 μM MG132 with 20 μM Caylin2, 8 hours, 3T3-L1 cells, FIG. 6B) of the same compound?
**A.** clearly inhibited the Caylin2-induced reduction in Parp1

**Q.** And the “effect on Nutlin3a-induced reduction in Parp1” value ([2]; 5 μM MG132 with 25 μM Nutlin3a, 8 hours, 3T3-L1 and 3T3-F442A cells, FIG. 3B)?
**A.** clearly inhibited the Nutlin3a-induced reduction in Parp1

**Q.** And the “basal Parp1 protein levels” value ([2]; 8 hours, 3T3-L1 and 3T3-F442A cells, FIG. 3B)?
**A.** did not affect basal Parp1 protein levels

**Q.** And the “basal Parp1 protein levels” value ([2]; 8 hours, 3T3-L1 cells, FIG. 6B)?
**A.** did not affect basal Parp1 protein levels

**Q.** And the “reduction in Parp1 protein” value [2]?
**A.** did not evoke a significant reduction in Parp1 protein

**Q.** Which p53 accumulation [1] does the source give for `N.N.[Cl][Pt][Cl]` [cisplatin] here?
**A.** induced p53 accumulation

**Q.** And the Parp1 protein levels ([2]; cisplatin treatment, data not shown)?
**A.** did not affect Parp1 protein levels

**Q.** And the “reduction in Parp1 protein” value [2]?
**A.** did not evoke a significant reduction in Parp1 protein

**Q.** What does the source list for `COc1ccc(C2=N[C@@H](c3ccc(Cl)cc3)[C@@H](c3ccc(Cl)cc3)N2C(=O)N2CCNC(=O)C2)c(OC(C)C)c1` [Nutlin3a]?
**A.** Nutlin3a-induced Parp1 decrease ([4]; A549 cells, 24 h, FIG. 1D): detected the Nutlin3a-induced Parp1 decrease in only A549 cells; reduction in Parp1 protein ([4]; HCT116 cells, various doses of Nutlin3a, data not shown): no significant reduction in Parp1 protein other than apoptotic cleavage; cleavage of Parp1 ([5]; human colon cancer cell line HCT116): induces cleavage of Parp1 into two apoptotic fragments; cleavage of Parp1 ([5]; human myeloid leukemia cell line ML-1): induces cleavage of Parp1 into two apoptotic fragments; caspase-3 activation ([3]; 3T3-F442A cells): no caspase-3 activation; caspase-3 activation ([3]; 3T3-L1 cells): no caspase-3 activation; cell viability (trypan blue exclusion) [6]: the cells were viable; Parp1 mRNA ([7]; p53 deficient cell lines (3T3-L1/shp53 and HW)): did not change; Parp1 mRNA ([7]; p53 proficient cell lines (3T3-L1 and 3T3-F442A)): did not change; Parp1 protein levels [2, 8]: markedly decreased the Parp1 protein levels; Parp1 protein levels [2, 10]: markedly decreased it; decrease in Parp1 ([2]; 3T3-L1/shp53 cells (p53 stable knockdown), FIG. 2B): diminished significantly; decrease in Parp1 ([2]; 3T3-L1 cells with shRNA-mediated transient knockdown of p53, FIG. 2A): attenuated the decrease in Parp1; Parp1 protein levels [2, 9]: markedly decreased the Parp1 protein levels; Parp1 protein levels [2, 11]: markedly decreased it; Parp1 protein, time course ([2]; 3T3-L1 or 3T3-F442A cells, 25 μM for 8 h, FIG. 1C): Parp1 protein diminished; decrease in Parp1 ([2]; HW cells (p53 deficient), FIG. 2B): diminished significantly; Parp1 reduction, p53 dependency ([2]; 24 hours, FIG. 2C): reduces the Parp1 protein levels in a p53-dependent manner; levels of full length of Parp1 protein ([2]; Nutlin3a-treated 3T3-L1, first observation): significant reduction in the levels of full length of Parp1 protein without cleavage into p85 and p25 apoptotic fragments
